We go through six molecules from patent US10865397B2, “Recombinant polynucleotide sequence for producing astaxanthin and uses thereof” (ACADEMIA SINICA, priority 2014, dated 2020).

The subject of data set [1] is Cz30 strain. Description: Stress tolerance test: pretreated cells, series dilution on YPG plate. The text has this:
(§1) For the biorefinery application, plant biomass is one of the most abundant renewable resources on earth and is considered an essential building block for developing a sustainable society. Renewable biological resources from plant can be converted into bioproducts, such as biofuels, biochemicals, biolubricants, and biodegradable materials. To utilize the sugars contained in plant biomass, many available treatment techniques, including acid hydrolysis, steam explosion, ammonia fiber expansion, organosolv, sulfite pretreatment, alkaline wet oxidation, ozone pretreatment, and enzyme treatment, are employed for lignocellulose destruction. Toxins produced during acid and steam pretreatment of lignocellulose cover a large range of substances, such as furfural and hydroxymethylfurfural from hemicellulose and cellulose, alcohols and aldehydes from lignin, and heavy metals from bioreactor. Accordingly, the second stress factor examined was furfural treatment.
(§2) WT and Cz30 strains were further tested for ethanol and butanol treatments.

The subject of data set [2] is WT strain. Particulars: 2, 4, or 6% ethanol in YPG medium, 24 hours.
Method: (§3) After 24 hours, the cells were inoculated into the YPG plate with a series dilution and cultivated for another 48 hours.
The test system of data set [3] is Cz30 strain.
Method: as §3
Data set [4] concerns WT strain. Description: Stress tolerance test: pretreated cells, series dilution on YPG plate. Particulars: colonies on plate (FIG. 27B).
Text: as §1, §2

For data set [5] the following is noted: 3′S, 3′S compared with the 3′R3′R, 3′R stereoisomer; cited from earlier work.

For `CCO` [ethanol], in data set [1], the “colony growth on YPG plate after treatment” value is on record as “Only some Cz30 colonies could grow”. Further, the “cell growth in presence of ethanol” value in data set [2] is “significantly repressed”; in data set [3] (2, 4, or 6% ethanol in YPG medium, 24 hours) it was “weakly affected”.

For the molecule `O=Cc1ccco1` [furfural], the furfural treatment tolerated is on record as 80 mM in data set [4] and 100 mM in data set [1] (Cz30 strain, colonies on plate (FIG. 27B)). For `CC(=O)O[C@@]12CO[C@@H]1C[C@H](O)[C@@]1(C)C(=O)[C@H](O)C3=C(C)[C@@H](O)C[C@@](O)([C@@H](OC(=O)c4ccccc4)[C@H]21)C3(C)C` [10-deacetyl baccatin III], the “colony growth on YPG plate after pretreatment” value in data set [1] (3.2 mM 10-deacetyl baccatin III in 12% ethanol, 24 hours, then 48 hours on plate, Cz30 versus WT) is “Cz30 colonies grew better than WT”. Also, the “damage to cultured yeasts compared with ethanol alone” value in data set [3] (0.8 mM with 4% ethanol or 1.2 mM with 6% ethanol versus 4% or 6% ethanol, WT and Cz30 (FIG. 29B)) is listed as “higher degree of damage”. In addition, the “growth in medium containing 10-deacetyl baccatin III” value in data set [3] (0.4-1.2 mM in YPG medium, Cz30 versus WT) was “Cz30 grew better than WT”. For the molecule `CC1=C(/C=C/C(C)=C/C=C/C(C)=C/C=C/C=C(C)/C=C/C=C(C)/C=C/C2=C(C)C(=O)[C@@H](O)CC2(C)C)C(C)(C)C[C@H](O)C1=O` (single isomer, unassigned; stereoisomer 3) [3′S, 3′S stereoisomer, 3′S, 3′S-astaxanthin], the “antioxidant activity of astaxanthin stereoisomers” value in data set [5] is reported as “higher antioxidant activity”.

As for `CC1=C(/C=C/C(C)=C/C=C/C(C)=C/C=C/C=C(C)/C=C/C=C(C)/C=C/C2=C(C)C(=O)[C@@H](O)CC2(C)C)C(C)(C)C[C@@H](O)C1=O` [3′R3′R, 3′S mesoform, 3′R3′R, 3′S astaxanthin], the “antioxidant activity of astaxanthin stereoisomers” value in data set [5] is “no antioxidant activity”.

For `CC(C)CO` [isobutanol], in data set [1], the “colony growth on YPG plate after treatment” value is “Only some Cz30 colonies could grow”.
